# From the OPERA property sets (Mansouri et al. 2018)
# Details: not given
row,Structure (SMILES),logP
1,CCCCCCCCCCCCCCCCCC(=O)OC,8.35
2,CCCCCCCCCCCC(=O)OCC,5.71
3,CCCCCCCCCCCCCCCCCCCCCC(=O)OC,10.2
4,CCCCCCCCCCCCCCCC(=O)OC,7.38
5,CCCCCCCCCCCC(=O)OCC(CC)CCCC (stereo not given),8.03
6,CCCCCCCCCCCC(=O)OCCC,6.11
7,CCCCCCCCCCCC(=O)OCCCC,6.51
8,CCCCCCCC/C=C\CCCCCCCC(=O)OC,7.45
9,CCCCCCCC/C=C\CCCCCCCCCCCC(=O)OC,9.32
10,CCCCCCCCCCCCCC(=O)OC,6.41
11,CCCCCCCCCCCCCCCCCCCC(=O)OC,9.3
12,CC/C=C\C/C=C\C/C=C\CCCCCCCC(=O)OC,6.29
13,CCCCC/C=C\C/C=C\CCCCCCCC(=O)OC,6.82
14,CCCCCCCCCCCC(=O)OC,5.41

# Same assay, conditions: 25 °C
row,Structure (SMILES),solubility [µM]
1,CCCCCCCCCCc1ccccc1,0.011
